These results are taken from US11319305B2, “Pyrimidine sulfamide derivative and preparation method and medical application thereof” (SHIJIAZHUANG SAGACITY NEW DRUG DEVELOPMENT CO., LTD., priority 2017, dated 2022).

A value given as a limit tells only on which side of the number the result lay.

One data set has as its target T1, CYP1A2 (Homo sapiens, UniProt P05177).
T1 construct: Mixed human liver microsomes (HLM) were purchased from Corning Inc; tissue Corning Inc; host or cells: pooled human liver microsomes
T1 sequence (P05177 1-516): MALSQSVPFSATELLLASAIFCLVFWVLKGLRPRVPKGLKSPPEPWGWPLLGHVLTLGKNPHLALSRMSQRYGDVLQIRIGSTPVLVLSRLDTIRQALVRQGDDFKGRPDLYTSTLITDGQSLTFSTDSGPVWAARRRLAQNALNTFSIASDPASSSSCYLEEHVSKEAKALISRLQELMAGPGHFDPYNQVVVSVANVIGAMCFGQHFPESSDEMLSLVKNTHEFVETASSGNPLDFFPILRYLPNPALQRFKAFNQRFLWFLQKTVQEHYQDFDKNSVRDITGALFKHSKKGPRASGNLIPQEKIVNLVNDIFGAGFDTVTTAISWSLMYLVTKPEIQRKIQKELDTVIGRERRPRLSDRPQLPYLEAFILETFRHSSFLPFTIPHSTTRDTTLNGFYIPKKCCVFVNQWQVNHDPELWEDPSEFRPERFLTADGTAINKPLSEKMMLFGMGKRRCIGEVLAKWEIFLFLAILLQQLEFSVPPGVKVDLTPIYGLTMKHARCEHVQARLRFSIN
The data set is described as follows: Human liver microsomal cytochrome P450 isozyme inhibition assay, CYP1A2. The format is in vitro ADME. Particulars: human liver microsomes. How it is done: (§1) Experimental Embodiment 4: Human Liver Microsomal Cytochrome P450 Isozyme Inhibition Assay The purpose of the assay was to evaluate the inhibitory activity of the samples against human liver microsomal cytochrome P450 isozyme (CYP1A2, CYP2C9, CYP2C19, CYP2D6 and CYP3A4) using the 5-in-1 probe substrate of the CYP isozyme. Mixed human liver microsomes (HLM) were purchased from Corning Inc. (Steuben, N.Y., USA) and stored below −80° C. before use. The test compound working solution which has been diluted into serial concentrations was added to an incubation system containing human liver microsomes, probe substrates and circulating system cofactors, and a control containing solvent without the test compound was used as the enzyme activity control (100%). The concentration of the metabolite produced by the probe substrate in the sample was determined using a liquid chromatography-tandem mass spectrometry (LC-MS/MS) method. Nonlinear regression analysis was performed on the average percent activity versus concentration of subjects using SigmaPlot (V.11). The IC50 value was calculated by a three-parameter or four-parameter inverse-logarithmic equation.

Data set [1] addresses T2, Human Pregnane X Receptor (PXR) (Homo sapiens, UniProt O75469).
T2 construct: host or cells: DPX2 cells
T2 sequence (O75469 1-434): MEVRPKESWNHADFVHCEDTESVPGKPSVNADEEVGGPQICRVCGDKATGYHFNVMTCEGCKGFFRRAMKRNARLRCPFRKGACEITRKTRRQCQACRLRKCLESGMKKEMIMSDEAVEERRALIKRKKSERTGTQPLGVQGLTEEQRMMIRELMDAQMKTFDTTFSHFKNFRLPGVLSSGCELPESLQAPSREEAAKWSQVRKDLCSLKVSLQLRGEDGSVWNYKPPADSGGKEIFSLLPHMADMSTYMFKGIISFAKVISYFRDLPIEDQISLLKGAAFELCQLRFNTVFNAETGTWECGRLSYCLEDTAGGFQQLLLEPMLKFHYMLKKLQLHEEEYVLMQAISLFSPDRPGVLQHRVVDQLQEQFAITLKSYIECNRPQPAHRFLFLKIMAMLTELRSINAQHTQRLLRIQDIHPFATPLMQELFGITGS
Kind of data set: Human pregnane X receptor (PXR) assay, induction of PXR-mediated CYP3A expression in DPX2 cells. The format is cell-based. How it is done: Experimental Embodiment 3: Human Pregnane X Receptor (PXR) Assay
The effect of the compounds on the induction of PXR-mediated CYP3A expression was evaluated.
1. DPX2 cells were thawn under sterile conditions.
2. DPX2 cell solution was distributed in 96-well plate (100 μL/well), and the plate was placed in a 5% CO2/37° C. incubator overnight.
3. Quantitative feeding medium was thawn in a 37° C. water bath. Positive control rifampin was thawn at room temperature. A series of test compounds and positive control dilutions were prepared in quantitative feeding medium. The cells were carefully aspirated from each wells without disturbing the cells during aspiration and the medium was discarded. 100 μL of each test compound concentration was transferred to pre-labeled wells. The operation of the positive control group and the blank group were the same. The plate was placed back into the incubator for 24 hours exposure.
(1) 7 μL of Luciferin-IPA was added to […] feeding medium, the mixture was mixed by inverting, and poured into a Luciferin-IPA reagent tank.
(2) The 96-well plate was taken out from the incubator, and the media was carefully aspirated from each wells. 50 μL of the Luciferin-IPA reagent was added to each wells, and the cell plate was placed back into the incubator for 60 minutes.
(3) During incubation, the P450-Glo buffer was poured into the Luciferin detection reagent, and the mixture was mixed by inverting.
(4) The 96-well plate was taken out from the incubator, and 40 μL of solution from each well was transferred into the corresponding white 96-well plate, and the corresponding position of each wells was consistent with the original cell plate. […]
(8) After incubation with Luciferin detection reagent for 20 minutes, a photometer (set 1-5 seconds. Readout Time) was used to measure the luminescence of each wells of the white 96-well plate. […]
(10) After incubating for 60 minutes at 37° C., the original 96-well plate was taken out of the incubator. The reader was set to the fluorescence mode, the excitation wavelength was set to 380-400 nm, the emission wavelength was set to 505 nm, and the fluorescence intensity of each wells was measured.
(11) The cell plate was taken out of the enzyme reader, and 100 μL of ONE-Glo™ detection reagent was added to each wells. […]
(12) The enzyme reader was set to 5 seconds for pre-shaking and 5 seconds for wells reading, and the fluorescence intensity in each hole was measured. […]
The positive control was rifampicin, six concentrations were tested in each experiment. The data was analyzed using Prism to generate a concentration-response curve and the EC50 value of the compound was calculated.

The subject of data set [2] is human liver microsomal cytochrome P450 isozyme (CYP1A2, CYP2C9, CYP2C19, CYP2D6 and CYP3A4). Kind of data set: Human liver microsomal cytochrome P450 isozyme inhibition assay, summary over the main isozymes. Particulars: human liver microsomes. Type of data set: in vitro ADME. How it is done:
as §1

Another data set addresses T3, CYP2C9 (Homo sapiens, UniProt P11712).
T3 construct: Mixed human liver microsomes (HLM) were purchased from Corning Inc; tissue Corning Inc; host or cells: pooled human liver microsomes
The data set is described as follows: Human liver microsomal cytochrome P450 isozyme inhibition assay, CYP2C9. Type of data set: in vitro ADME. Particulars: human liver microsomes. How it is done:
as §1
Background: Microsomes from liver hold many membrane-bound enzymes, among them those of drug oxidation.

In the next data set the target is T4, CYP2C19 (Homo sapiens, UniProt P33261).
T4 construct: Mixed human liver microsomes (HLM) were purchased from Corning Inc; tissue Corning Inc; host or cells: pooled human liver microsomes
Kind of data set: Human liver microsomal cytochrome P450 isozyme inhibition assay, CYP2C19. Particulars: human liver microsomes. The format is in vitro ADME. How it is done:
as §1

The target in the next data set is T5, CYP3A4 (Homo sapiens, UniProt P08684).
T5 construct: Mixed human liver microsomes (HLM) were purchased from Corning Inc; tissue Corning Inc; host or cells: pooled human liver microsomes
The data set is described as follows: Human liver microsomal cytochrome P450 isozyme inhibition assay, CYP3A4. Conditions: human liver microsomes. Type of data set: in vitro ADME. How it is done: as §1

The target in another data set is T6, CYP2D6 (Homo sapiens, UniProt P10635).
T6 construct: Mixed human liver microsomes (HLM) were purchased from Corning Inc; tissue Corning Inc; host or cells: pooled human liver microsomes
The data set is described as follows: Human liver microsomal cytochrome P450 isozyme inhibition assay, CYP2D6. The format is in vitro ADME. Particulars: human liver microsomes. How it is done: as §1

The target in data set [3] is T7, bile salt transport pump (BSEP) (Homo sapiens, UniProt O95342).
T7 construct: purchased Solvo Biotechnology SB-BSEP-Hi5-VT; host or cells: Hi5 insect cells (read from the product name; own knowledge)
Kind of data set: Inhibition test on bile salt transfer pump (BSEP), taurocholic acid uptake in BSEP-Hi5-VT vesicles. Type of data set: in vitro ADME.
Protocol: Prepared with buffer A, 8.16 mM ATP and 4.08 μM taurocholic acid were contained in 12 mL buffer A.
Prepared with buffer A, 8.16 mM AMP, 4.08 μM taurocholic acid 12 mL buffer A were contained in buffer A.
A solution containing BSEP-Hi5-VT 5 μg/μL was prepared with buffer A.
The compound was diluted to 100 mM with DMSO; then serially diluted 3-fold for an 11-point dilution; the minimum concentration was 0.169 μM.
Positive reference Glyburide was diluted to 20 mM with DMSO; then serially diluted 2-fold for an 11-point dilution; the minimum concentration was 19.5
0.3 μL of a solution of the compound in DMSO or a diluted DMSO solution were transferred into corresponding wells of the compound plate using ECHO, respectively.
14.7 μL of ATP buffer was added to the compound and the corresponding wells of zero percent effect (ZPE), respectively.
14.7 μL of AMP buffer was added to the corresponding wells of 100% effect (HPE), respectively.
The plate was shaked for 10 minutes at 25° C.
15 μL of BSEP-H15-VT Vesicle solution was added to all wells, respectively, and the plate was shaked for another 40 minutes at 25° C.
6.5 μL 0.5 M ethylenediaminetetraacetic acid (EDTA) solution was added to all wells immediately, followed by addition of 65 μL of buffer B, and the whole reaction was completed.
7.95 μL of liquid was transferred to the filter plate from the compound plate at the end of the reaction using an instrument.
After placing the liquid receiving plate under the filter plate, the liquid was removed using a centrifuge and the receiving plate liquid was discarded.
9.90 μL of buffer B was added to the filter plate. After placing the liquid receiving plate under the filter plate, the liquid was removed using a centrifuge, and the receiving plate liquid was discarded, and filter plate was washed for three times in total.
The filter plate was dried overnight.
On the next day, 80 μL of methanol/water (80/20, volume ratio) solution was added to the filter plate.
The plate was shaked for 15 minutes after the filter plate was attached to the membrane.
A new liquid receiving plate was placed under the filter plate, and the filter plate was centrifuged for 5 minutes, and all liquids in the filter plate were filtrated into the receiving plate.
15 μL of internal standard solution was added to each wells in the liquid receiving plate, and the plate was sealed with a membrane.
The content of taurocholic acid in the receiving plate was detected using LC/MS/MS.
Several concentrations were tested in each experiments. The data were analyzed using Prism to generate a concentration-response curve, and IC50 values of the compounds were calculated.

T3 sequence (P11712 whole entry): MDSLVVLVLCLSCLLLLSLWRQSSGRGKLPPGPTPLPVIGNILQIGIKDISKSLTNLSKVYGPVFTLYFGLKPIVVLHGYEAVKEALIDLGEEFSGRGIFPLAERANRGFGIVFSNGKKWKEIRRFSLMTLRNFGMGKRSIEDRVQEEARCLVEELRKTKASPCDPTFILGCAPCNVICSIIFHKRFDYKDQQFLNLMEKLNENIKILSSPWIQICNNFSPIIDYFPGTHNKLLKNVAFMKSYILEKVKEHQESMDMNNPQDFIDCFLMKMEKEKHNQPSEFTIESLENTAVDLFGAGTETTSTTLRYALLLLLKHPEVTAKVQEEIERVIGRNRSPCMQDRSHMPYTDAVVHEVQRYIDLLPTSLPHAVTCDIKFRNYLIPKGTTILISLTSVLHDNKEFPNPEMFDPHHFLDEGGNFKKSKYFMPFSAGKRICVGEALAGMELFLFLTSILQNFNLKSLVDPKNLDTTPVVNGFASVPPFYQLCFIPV
T7 sequence (O95342 whole entry): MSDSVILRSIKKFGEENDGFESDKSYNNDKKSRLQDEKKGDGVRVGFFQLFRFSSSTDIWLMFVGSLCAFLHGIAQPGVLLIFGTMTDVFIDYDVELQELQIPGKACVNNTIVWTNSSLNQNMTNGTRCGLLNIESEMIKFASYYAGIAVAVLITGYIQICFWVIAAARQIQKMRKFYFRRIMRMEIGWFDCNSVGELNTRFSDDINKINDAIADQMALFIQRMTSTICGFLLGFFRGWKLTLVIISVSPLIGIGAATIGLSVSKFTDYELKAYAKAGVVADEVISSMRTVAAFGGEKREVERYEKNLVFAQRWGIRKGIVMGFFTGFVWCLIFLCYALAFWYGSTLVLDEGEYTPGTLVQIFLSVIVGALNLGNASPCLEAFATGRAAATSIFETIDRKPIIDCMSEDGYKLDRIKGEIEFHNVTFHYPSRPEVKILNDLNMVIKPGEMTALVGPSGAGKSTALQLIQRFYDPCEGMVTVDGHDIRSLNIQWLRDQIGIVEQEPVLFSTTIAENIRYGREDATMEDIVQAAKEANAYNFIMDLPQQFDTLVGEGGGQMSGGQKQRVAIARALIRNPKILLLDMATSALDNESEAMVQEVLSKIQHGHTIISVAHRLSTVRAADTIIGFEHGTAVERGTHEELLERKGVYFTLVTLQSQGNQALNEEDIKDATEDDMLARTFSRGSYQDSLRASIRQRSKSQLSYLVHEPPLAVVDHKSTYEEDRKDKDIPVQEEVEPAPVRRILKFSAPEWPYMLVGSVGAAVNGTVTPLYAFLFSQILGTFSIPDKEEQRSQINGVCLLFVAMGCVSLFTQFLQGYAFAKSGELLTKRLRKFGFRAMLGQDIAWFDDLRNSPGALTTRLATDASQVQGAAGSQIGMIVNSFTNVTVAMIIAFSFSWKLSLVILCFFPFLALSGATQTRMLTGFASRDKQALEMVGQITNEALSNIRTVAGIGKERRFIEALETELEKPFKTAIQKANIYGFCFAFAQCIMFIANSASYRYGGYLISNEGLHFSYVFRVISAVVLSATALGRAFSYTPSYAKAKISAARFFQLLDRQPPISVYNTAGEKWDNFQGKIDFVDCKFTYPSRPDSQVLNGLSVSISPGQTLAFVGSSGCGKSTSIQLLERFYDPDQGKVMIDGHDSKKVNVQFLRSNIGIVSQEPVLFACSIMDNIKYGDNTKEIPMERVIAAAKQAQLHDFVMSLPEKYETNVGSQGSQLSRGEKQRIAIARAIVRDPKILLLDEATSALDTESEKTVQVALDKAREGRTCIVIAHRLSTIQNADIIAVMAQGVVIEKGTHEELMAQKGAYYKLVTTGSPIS
T4 sequence (P33261 whole entry): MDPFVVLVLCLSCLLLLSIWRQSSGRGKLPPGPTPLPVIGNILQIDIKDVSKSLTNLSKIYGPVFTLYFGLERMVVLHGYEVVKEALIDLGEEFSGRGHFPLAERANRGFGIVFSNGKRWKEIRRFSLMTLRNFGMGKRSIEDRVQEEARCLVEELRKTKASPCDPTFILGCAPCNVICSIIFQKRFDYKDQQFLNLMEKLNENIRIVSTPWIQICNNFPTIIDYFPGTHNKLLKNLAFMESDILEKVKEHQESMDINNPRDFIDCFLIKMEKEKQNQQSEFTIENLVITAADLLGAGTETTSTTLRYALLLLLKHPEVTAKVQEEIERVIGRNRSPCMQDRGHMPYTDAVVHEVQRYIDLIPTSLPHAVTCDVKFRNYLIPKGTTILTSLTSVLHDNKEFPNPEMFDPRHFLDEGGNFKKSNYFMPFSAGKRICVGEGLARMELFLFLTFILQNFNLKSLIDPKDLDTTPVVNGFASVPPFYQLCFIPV
T6 sequence (P10635 whole entry): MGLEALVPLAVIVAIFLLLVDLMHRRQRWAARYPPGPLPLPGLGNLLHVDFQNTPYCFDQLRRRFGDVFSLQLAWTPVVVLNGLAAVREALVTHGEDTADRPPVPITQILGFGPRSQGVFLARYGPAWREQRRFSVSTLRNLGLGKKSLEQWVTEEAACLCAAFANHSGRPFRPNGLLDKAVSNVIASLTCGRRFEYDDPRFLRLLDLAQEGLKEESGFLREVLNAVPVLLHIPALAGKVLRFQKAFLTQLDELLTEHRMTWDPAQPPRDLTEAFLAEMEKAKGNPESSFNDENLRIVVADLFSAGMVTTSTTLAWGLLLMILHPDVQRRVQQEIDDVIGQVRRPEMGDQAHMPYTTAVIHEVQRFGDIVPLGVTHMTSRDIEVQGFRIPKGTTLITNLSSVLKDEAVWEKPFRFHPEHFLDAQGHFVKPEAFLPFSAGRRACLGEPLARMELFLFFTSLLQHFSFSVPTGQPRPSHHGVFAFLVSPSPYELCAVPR
T5 sequence (P08684 whole entry): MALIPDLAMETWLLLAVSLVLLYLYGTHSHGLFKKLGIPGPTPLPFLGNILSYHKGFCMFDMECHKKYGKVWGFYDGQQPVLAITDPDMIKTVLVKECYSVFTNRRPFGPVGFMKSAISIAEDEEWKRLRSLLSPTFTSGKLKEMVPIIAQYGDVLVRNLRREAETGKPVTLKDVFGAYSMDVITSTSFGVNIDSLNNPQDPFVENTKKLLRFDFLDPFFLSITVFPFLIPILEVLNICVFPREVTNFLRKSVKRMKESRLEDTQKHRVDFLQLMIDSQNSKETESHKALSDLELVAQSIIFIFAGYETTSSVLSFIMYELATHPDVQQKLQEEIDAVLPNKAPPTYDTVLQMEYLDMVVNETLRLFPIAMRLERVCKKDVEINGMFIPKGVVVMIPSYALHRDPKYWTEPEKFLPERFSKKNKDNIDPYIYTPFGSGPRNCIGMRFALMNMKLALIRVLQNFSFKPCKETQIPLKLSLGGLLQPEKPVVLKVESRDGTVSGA

For `CCCNS(=O)(=O)Nc1ncnc(OCCOc2ncc(Br)cn2)c1-c1ccc(Br)cc1` [macitentan, reference compound], the half-inhibitory concentration (IC50) was 37 µM against CYP1A2; 7.5 µM on CYP2C9; 31 µM on CYP2C19; 23 µM on CYP3A4; over 50 µM against CYP2D6; 0.281 µM in data set [3] (substrate taurocholic acid, read-out: IC50, inhibitory effect on the bile salt transport pump (BSEP)). Besides, the “induction effect on PXR-mediated CYP3A expression (in words)” value in data set [1] is given as “relatively strong induction effect”. Besides, in data set [1] (DPX2 cells, 24 hours exposure, ± is calculation error of simulation curve, read-out: EC50, induction effect on PXR-mediated CYP3A expression), the EC50 was 6.34 ± 0.17 µM. For the same compound, in data set [2], the “inhibitory effects on four main isozymes of CYP (in words)” value is “weak”. Besides, the “inhibitory effects on the isozymes CYP2C9 (in words)” value against CYP2C9 is given as “moderate”. Further, the “inhibitory effect on the bile salt transport pump (BSEP) (in words)” value in data set [3] is reported as “strong”.

For orientation: IC50 means the point on the concentration scale where inhibition reaches its midpoint. What is called EC50 is the concentration needed to bring the measured effect to its halfway point.
